From patent publication US20040156869A1, “2-substituted quinazolin-4-ylamine analogues” (Neurogen Corporation, priority 2002, published 2004)

These compounds were tested against human capsaicin receptor (VR1) (Homo sapiens, UniProt Q8NER1) (assay: Capsaicin receptor binding assay ([3H]RTX competition, VR1-transfected HEK293 membranes)).
Chain of human capsaicin receptor (VR1) (Q8NER1 whole entry): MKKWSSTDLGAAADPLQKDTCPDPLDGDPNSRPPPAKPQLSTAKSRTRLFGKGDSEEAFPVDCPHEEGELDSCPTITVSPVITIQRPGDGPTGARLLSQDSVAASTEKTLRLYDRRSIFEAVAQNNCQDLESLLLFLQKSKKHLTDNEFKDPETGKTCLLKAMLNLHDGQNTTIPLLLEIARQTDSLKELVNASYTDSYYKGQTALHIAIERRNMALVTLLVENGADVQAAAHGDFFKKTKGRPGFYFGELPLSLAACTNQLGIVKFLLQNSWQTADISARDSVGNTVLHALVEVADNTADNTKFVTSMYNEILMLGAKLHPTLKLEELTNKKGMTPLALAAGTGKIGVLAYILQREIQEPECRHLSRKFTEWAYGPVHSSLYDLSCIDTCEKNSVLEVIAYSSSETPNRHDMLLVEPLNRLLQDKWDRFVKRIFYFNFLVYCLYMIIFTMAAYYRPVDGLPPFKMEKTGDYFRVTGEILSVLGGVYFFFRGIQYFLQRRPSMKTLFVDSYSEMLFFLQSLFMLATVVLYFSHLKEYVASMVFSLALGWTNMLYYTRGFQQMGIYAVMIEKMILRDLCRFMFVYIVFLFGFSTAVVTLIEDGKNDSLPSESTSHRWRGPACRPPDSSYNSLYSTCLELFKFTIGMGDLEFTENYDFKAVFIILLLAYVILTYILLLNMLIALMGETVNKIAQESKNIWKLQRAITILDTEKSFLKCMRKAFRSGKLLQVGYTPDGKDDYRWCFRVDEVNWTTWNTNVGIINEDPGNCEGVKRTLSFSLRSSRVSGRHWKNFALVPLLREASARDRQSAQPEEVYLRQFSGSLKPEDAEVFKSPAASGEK

Ki, < 1000 nM:
CC(C)COCc1nc(Nc2ccc(S(C)(=O)=O)cc2)c2ccc(-c3ncccc3C(F)(F)F)nc2n1 [Compound 214, [2-Isobutoxymethyl-7-(3-trifluoromethyl-pyridin-2-yl)-pyrido[2,3-d]pyrimidin-4-yl]-(4-methanesulfonyl-phenyl)-amine]
COCC(C)(C)c1ccc(Nc2nc(COCC(C)C)nc3nc(-c4ncccc4C)ccc23)cc1 [Compound 215, [2-Isobutoxymethyl-7-(3-methyl-pyridin-2-yl)-pyrido[2,3-d]pyrimidin-4-yl]-[4-(2-methoxy-1,1-dimethyl-ethyl)-phenyl]-amine]
Cc1cccnc1-c1ccc2c(Nc3ccc(S(C)(=O)=O)cc3)nc(COCC(C)C)nc2n1 [Compound 216, [2-Isobutoxymethyl-7-(3-methyl-pyridin-2-yl)-pyrido[2,3-d]pyrimidin-4-yl]-(4-methanesulfonyl-phenyl)-amine]
CC(C)(C)c1ccc(Nc2nc(C(C)(C)CO)nc3cc(-c4ncccc4C(F)(F)F)ccc23)cc1 [Compound 217, 2-[4-(4-tert-Butyl-phenylamino)-7-(3-trifluoromethyl-pyridin-2-yl)-quinazolin-2-yl]-2-methyl-propan-1-ol]
CC(C)(CO)c1nc(Nc2ccc(C(F)(F)F)cc2)c2ccc(-c3ncccc3C(F)(F)F)cc2n1 [Compound 218, 2-Methyl-2-[4-(4-trifluoromethyl-phenylamino)-7-(3-trifluoromethyl-pyridin-2-yl)-quinazolin-2-yl]-propan-1-ol]
CCOC(=O)c1nc(Nc2ccc(C(C)(C)C)cc2)c2ccc(-c3ncccc3C(F)(F)F)nc2n1 [Compound 219, 4-(4-tert-Butyl-phenylamino)-7-(3-trifluoromethyl-pyridin-2-yl)-pyrido[2,3-d]pyrimidine-2-carboxylic acid ethyl ester]
CC(C)(C)c1ccc(Nc2nc(C(=O)O)nc3nc(-c4ncccc4C(F)(F)F)ccc23)cc1 [Compound 220, 4-(4-tert-Butyl-phenylamino)-7-(3-trifluoromethyl-pyridin-2-yl)-pyrido[2,3-d]pyrimidine-2-carboxylic acid]
CCN(CC)C(=O)C(C)(C)c1ccc(Nc2nc(COC)nc3nc(-c4ncccc4C(F)(F)F)ccc23)cc1 [Compound 221, N,N-Diethyl-2-{4-[2-methoxymethyl-7-(3-trifluoromethyl-pyridin-2-yl)-pyrido[2,3-d]pyrimidin-4-ylamino]-phenyl}-isobutyramide]
CCN(CC)C(=O)C(C)(C)c1ccc(Nc2nc(COCC(C)C)nc3nc(-c4ncccc4C)ccc23)cc1 [Compound 222, N,N-Diethyl-2-{4-[2-isobutoxymethyl-7-(3-methyl-pyridin-2-yl)-pyrido[2,3-d]pyrimidin-4-ylamino]-phenyl}-isobutyramide]
CCOCc1nc(Nc2ccc(C(F)(F)F)cc2)c2ccc(-c3ncccc3C(F)(F)F)nc2n1 [Compound 223, [2-Ethoxymethyl-7-(3-trifluoromethyl-pyridin-2-yl)-pyrido[2,3-d]pyrimidin-4-yl]-(4-trifluoromethyl-phenyl)-amine]
CCOCc1nc(Nc2ccc(C(F)(F)F)nc2)c2ccc(-c3ncccc3C(F)(F)F)nc2n1 [Compound 224, [2-Ethoxymethyl-7-(3-trifluoromethyl-pyridin-2-yl)-pyrido[2,3-d]pyrimidin-4-yl]-(6-trifluoromethyl-pyridin-3-yl)-amine]
CCOCc1nc(Nc2ccc(C(C)(C)C#N)cc2)c2ccc(-c3ncccc3C(F)(F)F)nc2n1 [Compound 225, 2-{4-[2-Ethoxymethyl-7-(3-trifluoromethyl-pyridin-2-yl)-pyrido[2,3-d]pyrimidin-4-ylamino]-phenyl}-2-methyl-propionitrile]
CC(C)COCc1nc(Nc2ccc(S(C)(=O)=O)cc2)c2ccc(-c3ncccc3Cl)nc2n1 [Compound 226, [7-(3-Chloro-pyridin-2-yl)-2-isobutoxymethyl-pyrido[2,3-d]pyrimidin-4-yl]-(4-methanesulfonyl-phenyl)-amine]
CCN(CC)CC(C)(C)c1ccc(Nc2nc(COC)nc3nc(-c4ncccc4C)ccc23)cc1 [Compound 227, [4-(2-Diethylamino-1,1-dimethyl-ethyl)-phenyl]-[2-methoxymethyl-7-(3-methyl-pyridin-2-yl)-pyrido[2,3-d]pyrimidin-4-yl]-amine]
COC(=O)[C@@H](OCc1nc(Nc2ccc(C(C)(C)C)cc2)c2ccc(-c3ncccc3C(F)(F)F)cc2n1)C(C)C [Compound 228, 2-[4-(4-tert-Butyl-phenylamino)-7-(3-trifluoromethyl-pyridin-2-yl)-quinazolin-2-ylmethoxy]-3-methyl-butyric acid methyl ester (S)]
C[C@@H](OCc1nc(Nc2ccc(C(C)(C)C)cc2)c2ccc(-c3ncccc3C(F)(F)F)cc2n1)C(=O)O [Compound 229, (R)-2-[4-(4-tert-Butyl-phenylamino)-7-(3-trifluoromethyl-pyridin-2-yl)-quinazolin-2-ylmethoxy]-propionic acid (chiral)]
CC(C)[C@H](OCc1nc(Nc2ccc(C(C)(C)C)cc2)c2ccc(-c3ncccc3C(F)(F)F)cc2n1)C(=O)O [Compound 230, (S)-2-[4-(4-tert-Butyl-phenylamino)-7-(3-trifluoromethyl-pyridin-2-yl)-quinazolin-2-ylmethoxy]-3-methyl-butyric acid]
CCOCc1nc(Nc2ccc(C(C)C(F)(F)F)cc2)c2ccc(-c3ncccc3C(F)(F)F)nc2n1 (centres unmarked) [Compound 231, [2-Ethoxymethyl-7-(3-trifluoromethyl-pyridin-2-yl)-pyrido[2,3-d]pyrimidin-4-yl]-[4-(2,2,2-trifluoro-1-methyl-ethyl)-phenyl]-amine]
CC(C)COCc1nc(Nc2ccc(C(C)C(F)(F)F)cc2)c2ccc(-c3ncccc3C(F)(F)F)nc2n1 (centres unmarked) [Compound 232, [2-Isobutoxymethyl-7-(3-trifluoromethyl-pyridin-2-yl)-pyrido[2,3-d]pyrimidin-4-yl]-[4-(2,2,2-trifluoro-1-methyl-ethyl)-phenyl]-amine]
CC(C)COCc1nc(Nc2ccc(C(C)C(F)(F)F)cc2)c2ccc(-c3ncccc3Cl)nc2n1 (centres unmarked) [Compound 233, [7-(3-Chloro-pyridin-2-yl)-2-isobutoxymethyl-pyrido[2,3-d]pyrimidin-4-yl]-[4-(2,2,2-trifluoro-1-methyl-ethyl)-phenyl]-amine]
CC(C)[C@@H](OCc1nc(Nc2ccc(C(C)(C)C)cc2)c2ccc(-c3ncccc3C(F)(F)F)cc2n1)C(=O)O [Compound 234, 2-[4-(4-tert-Butyl-phenylamino)-7-(3-trifluoromethyl-pyridin-2-yl)-quinazolin-2-ylmethoxy]-3-methyl-butyric acid (R)]
COCc1nc(Nc2ccc(C(F)(F)F)cc2)c2ccc(-c3nccnc3Cl)nc2n1 [Compound 235, [7-(3-Chloro-pyrazin-2-yl)-2-methoxymethyl-pyrido[2,3-d]pyrimidin-4-yl]-(4-trifluoromethyl-phenyl)-amine]
COCc1nc(Nc2ccc(C(C)(C)C)cc2)c2ccc(-c3nccnc3Cl)nc2n1 [Compound 236, (4-tert-Butyl-phenyl)-[7-(3-chloro-pyrazin-2-yl)-2-methoxymethyl-pyrido[2,3-d]pyrimidin-4-yl]-amine]
COCc1nc(Nc2ccc(C(C)C)cc2)c2ccc(-c3nccnc3Cl)nc2n1 [Compound 237, [7-(3-Chloro-pyrazin-2-yl)-2-methoxymethyl-pyrido[2,3-d]pyrimidin-4-yl]-(4-isopropyl-phenyl)-amine]
COCc1nc(Nc2ccc(C(C)(C)C#N)cc2)c2ccc(-c3nccnc3Cl)nc2n1 [Compound 238, 2-{4-[7-(3-Chloro-pyrazin-2-yl)-2-methoxymethyl-pyrido[2,3-d]pyrimidin-4-ylamino]-phenyl}-2-methyl-propionitrile]
COCc1nc(Nc2ccc(S(=O)(=O)C(F)(F)F)cc2)c2ccc(-c3nccnc3Cl)nc2n1 [Compound 239, [7-(3-Chloro-pyrazin-2-yl)-2-methoxymethyl-pyrido[2,3-d]pyrimidin-4-yl]-(4-trifluoromethanesulfonyl-phenyl)-amine]
COCc1nc(Nc2ccc(C(F)F)cc2)c2ccc(-c3ncccc3C(F)(F)F)nc2n1 [Compound 240, (4-Difluoromethyl-phenyl)-[2-methoxymethyl-7-(3-trifluoromethyl-pyridin-2-yl)-pyrido[2,3-d]pyrimidin-4-yl]-amine]
CCOCc1nc(Nc2ccc(C(F)F)cc2)c2ccc(-c3ncccc3C(F)(F)F)nc2n1 [Compound 241, (4-Difluoromethyl-phenyl)-[2-ethoxymethyl-7-(3-trifluoromethyl-pyridin-2-yl)-pyrido[2,3-d]pyrimidin-4-yl]-amine]
CC(C)COCc1nc(Nc2ccc(C(F)F)cc2)c2ccc(-c3ncccc3C(F)(F)F)nc2n1 [Compound 242, (4-Difluoromethyl-phenyl)-[2-isobutoxymethyl-7-(3-trifluoromethyl-pyridin-2-yl)-pyrido[2,3-d]pyrimidin-4-yl]-amine]
COCc1nc(Nc2ccc(C(F)F)cc2)c2ccc(-c3ncccc3Cl)nc2n1 [Compound 243, [7-(3-Chloro-pyridin-2-yl)-2-methoxymethyl-pyrido[2,3-d]pyrimidin-4-yl]-(4-difluoromethyl-phenyl)-amine]
CCOCc1nc(Nc2ccc(C(F)F)cc2)c2ccc(-c3ncccc3Cl)nc2n1 [Compound 244, [7-(3-Chloro-pyridin-2-yl)-2-ethoxymethyl-pyrido[2,3-d]pyrimidin-4-yl]-(4-difluoromethyl-phenyl)-amine]
CO[C@H](C)c1nc(Nc2ccc(C(F)(F)F)cc2)c2ccc(-c3ncccc3Cl)nc2n1 [Compound 245, (R)-[7-(3-Chloro-pyridin-2-yl)-2-(1-methoxy-ethyl)-pyrido[2,3-d]pyrimidin-4-yl]-(4-trifluoromethyl-phenyl)-amine]
